Values of other authors as cited in US20200276090A1, “TOPICAL PRODUCTS WITH A BIPHASIC SYSTEM” (CMED AESTHETICS s.r.l., priority 2017, published 2020).
Read-outs that look alike come from different tables or passages of the source.

Details: after 90 days

O=C(O)C(Cl)(Cl)Cl [TCA, trichloroacetic acid]
Degradation of TCA (TCA in aqueous solution alone): 12.6%
Degradation of TCA (in the presence of a high percentage of stabilizing agents, on average): 2-3%
Degradation of TCA (in the presence of a low percentage of stabilizing agents, on average): 4-5%
